Results from the SangsterLogP compilation.

Legend:
[1] = method code SF-AS, from DOI: 10.1002/qsar.200430865; conditions: pH 3.5
[2] = pH 3.5

logD [1] | logD [2] | SMILES
3.46 |  | Oc1ccc(C(=S)Nc2cccc(Br)c2)c(O)c1
3.41 |  | Oc1ccc(C(=S)Nc2cccc(F)c2)c(O)c1
2.36 |  | CC(=O)c1cccc(NC(=S)c2ccc(O)cc2O)c1
2.41 |  | N#Cc1ccc(NC(=S)c2ccc(O)cc2O)cc1
4.02 |  | Oc1ccc(C(=S)Nc2ccc(Br)cc2)c(O)c1
3.9 |  | Oc1ccc(C(=S)Nc2cccc(Cl)c2)c(O)c1
 | 3.54 | COc1cccc(NC(=S)c2ccc(O)cc2O)c1
4.43 |  | Oc1ccc(C(=S)Nc2ccc(Cl)c(F)c2)c(O)c1
3.49 |  | CCOc1ccc(NC(=S)c2ccc(O)cc2O)cc1

Continued, molecule first:

SMILES | logD [1] | logD [2]
Oc1ccc(C(=S)Nc2ccc(Cl)cc2Cl)c(O)c1 | 4.26 | 
COC(=O)c1ccccc1NC(=S)c1ccc(O)cc1O | 2.92 | 
Oc1ccc(C(=S)Nc2ccccc2F)c(O)c1 | 3.36 | 
Oc1ccc(C(=S)Nc2cc(Cl)ccc2O)c(O)c1 | 3.58 | 
Oc1ccc(C(=S)Nc2cc(Cl)c(Cl)cc2Cl)c(O)c1 | 4.92 | 
Oc1ccc(C(=S)Nc2ccc(F)cc2F)c(O)c1 | 3.54 | 
Oc1ccc(C(=S)Nc2cccc(Cl)c2Cl)c(O)c1 | 4.02 | 
CCOc1ccccc1NC(=S)c1ccc(O)cc1O | 3.8 | 
Oc1ccc(C(=S)Nc2cccc(C(F)(F)F)c2)c(O)c1 | 4.26 | 
